Holding throughout (assay): NCI-60 cell line screen, 48 h
Experiment [1] concerns CAKI-1.
Experiment [2] concerns SNB-75.
Experiment [3] has as its system M14.
The test system of experiment [4] is SW-620.
For experiment [5], the system named is MDA-MB-231.
The test system of experiment [6] is Malme-3M.
The test system of experiment [7] is PC-3.
In experiment [8] the test system is SF-539.
In experiment [9] the test system is A498.
Experiment [10] has as its system OVCAR-4.
Experiment [11] relates to SK-OV-3.
Experiment [12] relates to SK-MEL-5.
Experiment [13] relates to HOP-92.
Experiment [14] has as its system UACC-257.
The subject of experiment [15] is SR.
The subject of experiment [16] is UACC-62.
In experiment [17] the test system is NCI-H522.
Experiment [18] concerns HCT-116.
In experiment [19] the test system is BT-549.
Experiment [20] has as its system SN12C.

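Method: 48-hour compound exposure of cells in 96-well plates, five concentrations, linear interpolation of endpoints. Here, GI50 denotes the concentration required for 50% inhibition of growth.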 Calls of active or inactive are those of the source. Cut-off read from the data, not from the text of the source: active = GI50 up to about 1.1 µM and inactive = higher.

We go through 12 molecules from ChEMBL document CHEMBL1201862, “PubChem BioAssay data set” (2004).

Turning to `CCOC(=O)c1csc(NC(=O)C(C)N2CCCCC2)n1` (stereo not given), the GI50 in experiment [1], in experiment [2], in experiment [3], in experiment [4], in experiment [5] and in experiment [6] was > 100 µM (inactive) throughout. Moreover, the GI50 in experiment [7], in experiment [8], in experiment [9], in [10], in [11] and in experiment [12] was > 100 µM (inactive) in each case. The GI50 is > 100 µM (inactive) in experiment [13], > 100 µM (inactive) in [14], 2.51 µM (inactive) in experiment [15] and > 100 µM (inactive) in experiment [16].

With `COc1cc(OC2OC(CO)C(O)C(O)C2O)c2c(O)c3c(=O)cc(C)oc3cc2c1` (stereo not given), the GI50 in experiment [17], in experiment [18], in experiment [1], in experiment [2], in [3] and in experiment [4] was > 100 µM (inactive) throughout. Further, the GI50 is 29.5 µM (inactive) in experiment [19]; 67.1 µM (inactive) in experiment [6]; > 100 µM (inactive) in [7]; 94 µM (inactive) in experiment [8]; > 100 µM (inactive) in experiment [9]; > 100 µM (inactive) in experiment [10]. Also, the GI50 is > 100 µM (inactive) in [11]; > 100 µM (inactive) in [12]; > 10 µM (inactive) in [13]; > 100 µM (inactive) in experiment [14]; > 100 µM (inactive) in [16].

Consider `O=S(=O)(O)c1ccc2c(/N=N/c3cccc4ccccc34)c(O)c(S(=O)(=O)O)cc2c1`, for which the GI50 in [17], in experiment [18], in experiment [1], in experiment [2], in [3] and in experiment [4] was > 100 µM (inactive) throughout. Further, the GI50 in [5], in experiment [19], in experiment [6], in experiment [7], in [20] and in experiment [10] was > 100 µM (inactive) in each case. Moreover, the GI50 in [11], in [12], in [13], in experiment [14] and in experiment [16] was > 100 µM (inactive) throughout.

In the case of `O=C(C1C(c2ccccc2)N1C(c1ccccc1)c1ccccc1)C1C(c2ccccc2)N1C(c1ccccc1)c1ccccc1` (stereo not given), the GI50 in [17] is 5.71 µM (inactive); in experiment [18], 5.08 µM (inactive); in experiment [2], 45.6 µM (inactive); in experiment [3] it was 37.2 µM (inactive); in [4], 5.14 µM (inactive); in experiment [5] it was 19.8 µM (inactive). Also, the GI50 is 23.9 µM (inactive) in [7]; 20 µM (inactive) in experiment [8]; 21.8 µM (inactive) in experiment [20]; 38.1 µM (inactive) in [10]; > 100 µM (inactive) in [11]; 20.6 µM (inactive) in [12]. The GI50 in experiment [14] was 18.5 µM (inactive); in experiment [15] it was 3.51 µM (inactive).

As for `O=C1Nc2ccccc2C(=O)/C1=C/NC(=S)NCCc1ccccc1`, the GI50 in [18], in experiment [1], in experiment [2], in experiment [3], in experiment [4] and in experiment [5] was > 100 µM (inactive) throughout. Further, the GI50 in experiment [19] was > 100 µM (inactive); in experiment [7], 98.4 µM (inactive); in [8] it was > 100 µM (inactive); in [20], > 100 µM (inactive); in experiment [10], > 100 µM (inactive); in experiment [11], > 100 µM (inactive). In addition, the GI50 in experiment [12], in experiment [13], in [14] and in experiment [16] was > 100 µM (inactive) in each case.

Turning to `O=C(CCc1ccccc1)CC1OC(=O)C(Cl)=C1Cl` (stereo not given), the GI50 in experiment [17] was 14.5 µM (inactive); in experiment [18] it was 14.8 µM (inactive); in experiment [1], 29.5 µM (inactive); in experiment [2], 53.6 µM (inactive); in experiment [3], 16.5 µM (inactive); in [4] it was 12.1 µM (inactive). Also, the GI50 in [6] was 18.2 µM (inactive); in experiment [8] it was 31 µM (inactive); in experiment [20], 18.5 µM (inactive); in [9], 34 µM (inactive); in experiment [10], 96.4 µM (inactive); in experiment [11], 45.6 µM (inactive). For the same molecule, the GI50 is 20.8 µM (inactive) in [12]; 23.9 µM (inactive) in experiment [13]; 21.3 µM (inactive) in [14]; 30.5 µM (inactive) in experiment [15]; 17 µM (inactive) in [16].

With `C[C@]12CC[C@H](O)CC1=CC[C@@H]1[C@@H]2CC[C@]2(C)C(=O)CC[C@@H]12` [PRASTERONE], the GI50 in experiment [17], in [18], in experiment [1], in [2], in experiment [3] and in experiment [4] was > 100 µM (inactive) each time. Also, the GI50 in experiment [19], in [6], in [7], in experiment [8], in experiment [20] and in [10] was > 100 µM (inactive) in each case. In addition, the GI50 in experiment [11], in [12], in [14], in [15] and in experiment [16] was > 100 µM (inactive) in each case.

In the case of `COc1ccc(C(=O)C(C(=O)C(=O)NC2C3CC4CC(C3)CC2C4)c2ccc(OC)cc2)cc1` (stereo not given), the GI50 in [17] is > 100 µM (inactive); in [18] it was > 100 µM (inactive); in experiment [1], > 100 µM (inactive); in experiment [2], 16.6 µM (inactive); in [3], > 100 µM (inactive); in [4], > 100 µM (inactive). The GI50 in [6], in [8], in experiment [20], in experiment [9], in [10] and in [11] was > 100 µM (inactive) each time. In addition, the GI50 in experiment [12], in experiment [13], in experiment [14], in experiment [15] and in experiment [16] was > 100 µM (inactive) each time.

In the case of `Oc1cn(-c2ccc(Cl)cc2)nc1-c1nnc(-c2ccccc2)o1`, the GI50 in experiment [17] is 1.1 µM (active); in experiment [18], 0.0769 µM (active); in experiment [1], 0.359 µM (active); in experiment [2] it was > 22.6 µM (inactive); in experiment [4] it was 1.94 µM (inactive); in [5] it was 6.01 µM (inactive). The GI50 is 8.34 µM (inactive) in [6]; 1.43 µM (inactive) in experiment [7]; 0.411 µM (active) in [8]; 1.43 µM (inactive) in experiment [20]; 9.4 µM (inactive) in experiment [9]; 19.5 µM (inactive) in experiment [10]. For the same molecule, the GI50 in experiment [11] was 12.9 µM (inactive); in experiment [12], 0.268 µM (active); in experiment [13] it was 18.8 µM (inactive); in experiment [14] it was 1.63 µM (inactive); in [16], 2.09 µM (inactive).

As for `O=C(CC1Sc2ccccc2NC1=O)Nc1ccc(Cl)cc1` (stereo not given), the GI50 in experiment [17] is > 100 µM (inactive); in experiment [18], 42.9 µM (inactive); in experiment [1], > 100 µM (inactive); in experiment [2], 13.1 µM (inactive); in experiment [3], 92.5 µM (inactive); in [4], > 100 µM (inactive). The GI50 is 46.2 µM (inactive) in experiment [6]; 50.2 µM (inactive) in experiment [8]; > 100 µM (inactive) in experiment [20]; > 100 µM (inactive) in experiment [9]; 18.2 µM (inactive) in experiment [10]; > 100 µM (inactive) in experiment [11]. Moreover, the GI50 was > 100 µM (inactive) in experiment [12]; 19.6 µM (inactive) in experiment [13]; > 100 µM (inactive) in experiment [14]; > 100 µM (inactive) in experiment [15]; 23.9 µM (inactive) in experiment [16].

As for `CN(C)N1C(=O)S/C(=C\c2ccc([N+](=O)[O-])cc2)C1=O`, the GI50 in experiment [17] was > 100 µM (inactive); in experiment [18], > 100 µM (inactive); in experiment [1], > 100 µM (inactive); in experiment [2], 0.0458 µM (active); in experiment [3], > 100 µM (inactive); in experiment [5], > 100 µM (inactive). Moreover, the GI50 in [6], in experiment [7], in experiment [8], in experiment [20], in [9] and in experiment [10] was > 100 µM (inactive) throughout. The GI50 is > 100 µM (inactive) in experiment [11]; > 100 µM (inactive) in experiment [12]; > 100 µM (inactive) in experiment [13]; > 100 µM (inactive) in [14]; 57.4 µM (inactive) in experiment [15]; > 100 µM (inactive) in [16].

Consider `COC(=O)[C@H](Cc1ccccc1)NP(=O)(O)OCC1C=CC(n2cc(C)c(=O)[nH]c2=O)O1` (stereo not given in full), for which the GI50 in experiment [17], in [18], in experiment [1], in experiment [2], in experiment [3] and in [4] was > 100 µM (inactive) in each case. For the same molecule, the GI50 in [5], in experiment [19], in experiment [6], in [7], in experiment [20] and in experiment [10] was > 100 µM (inactive) each time. Besides, the GI50 in [11], in experiment [12], in experiment [13], in experiment [14] and in experiment [16] was > 100 µM (inactive) each time.
